Laboratory results from patent US11173158B2, “Medicinal agent and beverage/food for preventing cerebral dysfunction and improving same” (PTC Therapeutics MP, Inc., priority 2010, dated 2021).
“Also recorded” adds a separate entry of the source.

How the values were obtained:
[1] = test system: SD rats; assay: Amounts of tetrahydrobiopterin, serotonin and 5-hydroxyindoleacetic acid in rat brain after oral administration; type: in vivo; settings: 0-8 hours after administration; for amount of tetrahydrobiopterin in the brain: FIG. 5A
Protocol: In Example 4, rats were used to measure amounts of tetrahydrobiopterin, serotonin and 5-hydroxyindoleacetic acid in the brain on administration of sepiapterin. Rats used were SD rats (7-8 week old, males) purchased from Japan SLC, Inc. The rats were kept in a dark place for 12 hours and in a light place for 12 hours and fed ad libitum with a diet (“MM-3” made by Funabashi Farm Co., Ltd.) and sterilized tap water as drinking water. Sepiapterin or tetrahydrobiopterin was dissolved in 10 mM hydrochloric acid, the resultant of which was orally administered to the rats (n=6) under diethylether anesthesia. After 1, 1.5, 2, 3, 4, 6 and 8 hours, the brains were excised under pentobarbital sodium anesthesia (pentobarbital was intraperitoneally administered at 40 mg/kg five minutes before), and the brain was divided into two portions at the median line to obtain left and right brain samples. Rats not treated with sepiapterin or tetrahydrobiopterin were used as samples at 0 hours after administration according to the same procedures. […] Amounts of serotonin and 5-hydroxyindoleacetic acid in the brain were calculated by adding 3.5 times the volume of 1.43% ascorbic acid-containing 100 mM hydrochloric acid which contains N-methyl serotonin as an internal standard to a right brain sample, homogenizing brain tissues, adding […] (final concentration of 5.5%) thereto, ice-cooling the resultant for removing protein and treating a supernatant thereof in a system of high performance liquid chromatography/fluorescence detection (HPLC/FD), (refer to Non-Patent Document 9). In the high performance liquid chromatography, as with Example 1, etc., “Fine-SIL-C18-5T (made by JASCO Corporation)” was used as a column. […] In the system of high performance liquid chromatography/fluorescence detection (HPLC/FD), 5-hydroxytryptophan (5HTP), serotonin, N-methyl serotonin, tryptophan and 5-hydroxyindoleacetic acid are eluted in the above order, thus making it possible to determine quantitatively these substances at the same time.

[2] = test system: RBL2H3 cells; assay: Total amount of biopterin in RBL2H3 cells after addition to culture medium; type: cell-based; settings: 100 μM added, 0-180 min, FIG. 2B
Protocol: (§1) In Example 1, where PC12 cells and RBL2H3 cells were used as aromatic monoamine synthesizing cells and sepiapterin was added to a culture medium, evaluation was made for a total amount of biopterin in the cells (a total amount of tetrahydrobiopterin, and its oxidant, dihydrobiopterin and biopterin, the same shall apply hereinafter).
(§2) The PC12 cells are cultured cells having properties of a neuron and it is known that they synthesize dopamine, noradrenaline and adrenaline, with tetrahydrobiopterin used as a coenzyme. The RBL2H3 cells are cultured cells having properties of a mast cell and it is known that they synthesize serotonin, with tetrahydrobiopterin used as a coenzyme. […]
(§3) A total amount of biopterin in the cells was measured by using a system of high performance liquid chromatography/fluorescence detection (HPLC/FD) according to the Fukusima-Nixon method (refer to Non-Patent Document 8).
(§4) A principle of the Fukushima-Nixon method is as follows. Upon oxidation with iodine under strong acid or alkaline conditions, tetrahydrobiopterin is quantitatively oxidized into oxidized-form biopterin under acid conditions and oxidized into oxidized-form pterin in which a side chain in the 6th-class position is removed under alkaline conditions. […] The oxidized-form biopterin and the oxidized-form pterin have strong natural fluorescent characteristics (excitation: 350 nm, fluorescence: 450 nm). […]

[3] = test system: hph-1 mice; assay: Amount of serotonin in brain of hph-1 mice after oral administration; type: in vivo, mouse; settings: oral 20 mg/kg twice (2 h apart), brain 6 hours after first administration, FIG. 6
Protocol: The mice used were those of “hph-1” which were provided by Dr. […] (Institute of Metabolic Disease, Baylor University Medical Center, Dallas, Tex. 75226, USA). The mice are characterized as being defective in biosynthesis functions of tetrahydrobiopterin, with the level of tetrahydrobiopterin in the brain being from 40 to 50% as compared with ordinary mice. The mice were bred in a dark place for 12 hours and also in a light place for 12 hours and fed ad libitum with a diet (“MM-3” made by Funabashi Farm Co., Ltd.) and sterilized tap water as drinking water. An amount of serotonin was measured by dissolving sepiapterin or tetrahydrobiopterin in 0.01 M hydrochloric acid, thereafter administering orally each of the resultants at 20 mg/kg to the mice, giving another oral administration at the same dose two hours thereafter, and excised the brains from each mouse six hours after the first administration (n=7 in a group treated with sepiapterin, and n=8 in a group treated with tetrahydrobiopterin). […] In a control group, measurement was made similarly by orally administering 0.01M hydrochloric acid.

[4] = test system: NZB mice; assay: Forced swim test in mice; type: in vivo, mouse; settings: intraperitoneal single dose 10 mg/kg, test after 40 minutes, five-minute swimming, FIG. 7
Protocol: In Example 6, the mice were subjected to a forced swim test after administration of sepiapterin. The forced swim test of the mice is a test method for evaluating antidepressant effects, and length of “immobile” time is a criterion of depression. Evaluation is made in such a manner that the shorter the “immobile” time is, the greater the antidepressant effects are. The mice used were NZB mice purchased from. Japan SLC, Inc (7-week old males). The mice were maintained in a dark place for 12 hours and in a light place for 12 hours and fed ad libitum with a diet (“MM-3” made by Funabashi Farm Co., Ltd.) and sterilized tap water as drinking water, except when they were constrained in an experiment. The mice are characterized in that they are more likely to develop an auto-immune disease with advancement of age. […] The mice which had been subjected to 15-minute preliminary swimming without administration of a drug, etc., on the previous day were used in the experiment. The mice were intraperitoneally administered tetrahydrobiopterin (n=7) or sepiapterin (n=5) at a single dose of 10 mg/kg and subjected to a forced swim test after 40 minutes to measure “immobile” time. The test was conducted under dim light by using a 15 cm-across and 15 cm-deep water tank kept at a temperature of 22° C. “Immobile” time was measured by calculating an added value of “immobile” time during five-minute-swimming. […]

[5] = test system: PC12 cells; assay: Total amount of biopterin in PC12 cells after addition to culture medium; type: cell-based; settings: 100 μM added, 0-180 min, FIG. 2A
Protocol: as §1, §2, §3, §4

SMILES | amount of tetrahydrobiopterin in the brain [1] | amount of serotonin in the brain ([1]; FIG. 5B) | change in the total amount of biopterin in the cells [2] | amount of serotonin in the brain [3] | "immobile" time in forced swim test [4] | change in the total amount of biopterin in the cells [5]
C[C@H](O)C(=O)C1=Nc2c(nc(N)[nH]c2=O)NC1 [sepiapterin, 7,8-Dihydro-6-[(S)-2-hydroxy-1-oxopropyl]-pterin] | significant increase | significantly increased | remarkable increase | significant increase | significantly short | remarkable increase
C[C@H](O)[C@H](O)[C@H]1CNc2nc(N)[nH]c(=O)c2N1 [tetrahydrobiopterin, Tetrahydrobiopterin] | did not show an increase |  | substantially no change; also recorded: slight increase |  |  | substantially no change; also recorded: slight increase
